Publication PMC12410356 (International Journal for Parasitology: Drugs and Drug …, 2025)

Assays:
[1] = system: E. multilocularis metacestode vesicles; experiment: Phosphoglucose isomerase (PGI) release assay (damage-marker release) on metacestode vesicles; type: cell-based, Echinococcus multilocularis; settings: 10 μM; for PGI d5 (relative PGI release): 5 days; for PGI d12 (relative PGI release): 12 days
[2] = system: E. multilocularis metacestode vesicles; experiment: Metacestode vesicle viability assay (ATP, CellTiter-Glo); type: cell-based, Echinococcus multilocularis
Experimental: Viability was assessed after 12 days using the same metacestode vesicles as for the PGI release assay. Triton X-100 was added to each well to a final concentration of 0.1 %. Subsequently the metacestode vesicles were broken mechanically and 50 μL of the supernatant was mixed with 50 μL of CellTiter-Glo® buffer (Promega, Dübendorf, Switzerland). Measurements were performed on a HIDEX Sense microplate reader.

[3] = overview screen, singlets, relative to 0.1 % Triton X-100, DMSO subtracted
[4] = overview screen, 10 μM, singlets, 12 days, relative to DMSO control
[5] = confirmation screen, triplicates, mean
[6] = confirmation screen, 10 μM, triplicates, mean, 12 days

Row | SMILES | PGI d5 (relative PGI release) [1, 3] | PGI d12 (relative PGI release) [1, 3] | Viability d12 (relative viability) [2, 4] | PGI d5 (relative PGI release) [1, 5] | PGI d12 (relative PGI release) [1, 5] | Viability d12 (relative viability) [2, 6] | Viability d12 (relative viability) ([2]; 10 µM)
1 | COc1ccc(SCC(=O)N2c3ccccc3Sc3ccccc32)cc1 [MMV1578573] | -3.455% | -10.5042% | 50.7662% |  |  |  | 
2 | CCC(C)n1ncn(-c2ccc(N3CCN(c4ccc(OCC5COC(Cn6cncn6)(c6ccc(Cl)cc6Cl)O5)cc4)CC3)cc2)c1=O (stereo not drawn) [MMV637528] | -2.417% | -24.1326% | 37.4902% |  |  |  | 
3 | Cc1ncc([N+](=O)[O-])n1CC(O)CN1CCOCC1 (stereo not drawn) [MMV1613562] | 0.195% | -6.037% | 97.4765% |  |  |  | 
4 | O=[N+]([O-])c1cn(Cc2nc(O)nc(O)c2Br)cn1 [MMV1579777] | -0.845% | -7.383% | 93.1599% |  |  |  | 
5 | NC(=O)C(c1ccccc1)(c1ccccc1)[C@H]1CCCN(CCc2ccc3c(c2)CCO3)C1 [MMV1782412] | 1.533% | 2.087% | 220.792% |  |  |  | 
6 | CCCNc1ccc(S(=O)(=O)Nc2cc(C)on2)cc1 [MMV1782216] | -2.087% | -24.1037% | 105.791% |  |  |  | 
7 | CCOCc1nc2c(N)nc3ccccc3c2n1CC(C)(C)O [MMV690547] | 0.01909% | 53.3537% | 9.628% | 0.18% | 0.96% | 159.08% | 
8 | NC(=O)c1ccc(I)c([N+](=O)[O-])c1 [MMV1581035] | 1.539% | -0.2873% | 321.911% |  |  |  | 
9 | CCCCCCCCCN1C[C@@H](O)[C@H](O)[C@@H](O)[C@@H]1CO [MMV1593513] | -0.861% | -3.193% | 80.9399% |  |  |  | 
10 | COc1ccc(C2CNC(=O)C2)cc1OC1CCCC1 (stereo not drawn) [MMV003738] | -0.5058% | -19.6179% | 180.575% |  |  |  | 
11 | O=C(O)C(Cc1c[nH]c2ccccc12)N1C(=O)c2ccccc2C1=O (stereo not drawn) [MMV452821] | 1.873% | 0.986% | 132.36% |  |  |  | 
12 | COc1ccc(C)cc1NC(=O)c1ccc(S(=O)(=O)N2CCCCC2)cc1 [MMV1578579] | -1.553% | -13.2873% | 52.1022% |  |  |  | 
13 | O=C(CCCC(F)(F)F)N1CCC(c2nc(-c3nccs3)no2)CC1 [MMV1582491] | 0.6914% | 59.8611% | 18.4528% | -0.08% | -0.04% | 57.90% | 
14 | O=S(=O)(NCB(O)O)c1ccc(-c2nnn[nH]2)cc1C(F)(F)F [MMV1782411] | -0.527% | -17.35% | 79.3081% |  |  |  | 
15 | O=C(N[C@H](Cc1cccc2ccccc12)C(=O)NCCc1c[nH]cn1)C1Cc2ccccc2C1 [MMV1782109] | -2.59% | -25.3398% | 29.391% |  |  |  | 
16 | O=C(NCc1ccccc1Cl)c1cnc2ccccc2n1 [MMV1230557] | -1.462% | -11.048% | 58.5314% |  |  |  | 
17 | Nc1ccc2oc(=O)ccc2c1I [MMV1581378] | 0.09331% | -19.2105% | 90.9948% |  |  |  | 
18 | Nc1nc(F)nc2c1ncn2[C@@H]1O[C@H](CO)[C@@H](O)[C@@H]1O [MMV637413] | -0.694% | 1.228% | 168.919% |  |  |  | 
19 | COc1ccc2c(c1OC)C(=O)OC2C1c2c(cc3c(c2OC)OCO3)CCN1C (stereo not drawn) [MMV002780] | -0.3679% | -3.872% | 419.126% |  |  |  | 

Row | SMILES | PGI d5 (relative PGI release) [1, 3] | PGI d12 (relative PGI release) [1, 3] | Viability d12 (relative viability) [2, 4] | PGI d5 (relative PGI release) [1, 5] | PGI d12 (relative PGI release) [1, 5] | Viability d12 (relative viability) [2, 6] | Viability d12 (relative viability) ([2]; 10 µM)
20 | Cc1cc(C)n(O)c(=O)c1 [MMV1782389] | -2.677% | -25.4049% | 156.473% |  |  |  | 
21 | NCC(=O)Nc1ccc(-n2nc(C(F)(F)F)cc2-c2ccc3c(ccc4ccccc43)c2)cc1 [MMV1578560] | 3.295% | 35.9177% | 75.9823% |  |  |  | 
22 | FC(F)(F)Oc1ccc(Nc2ccc3cccc(Cl)c3n2)cc1 [MMV1581032] | -0.01272% | 18.8065% | 85.6723% |  |  |  | 
23 | CCC(CC)[C@H](NC(C)=O)[C@@H]1[C@H](O)[C@@H](C(=O)O)C[C@H]1NC(=N)N [MMV1593511] | 0.2364% | -10.4107% | 73.923% |  |  |  | 
24 | CCc1ccc(C2CC(C(F)(F)F)n3ncc(C(=O)NCc4ccc(OC)cc4)c3N2)cc1 (stereo not drawn) [MMV831201] | -0.786% | -0.2956% | 124.843% |  |  |  | 
25 | Nc1ccc(-c2nc3cc(C(F)(F)F)ccc3n2C23CC4CC(CC(C4)C2)C3)cc1 [MMV1634385] | 1.378% | 1.206% | 100.869% |  |  |  | 
26 | NC(=O)c1[nH]c2ccc(S(N)(=O)=O)cc2c1-c1ccccc1 [MMV1581556] | 1.2% | 0.8963% | 154.578% |  |  |  | 
27 | C[C@H](Cn1cnc2c(N)ncnc21)OCP(=O)(O)O [MMV1580478] | 0.0562% | -19.3802% | 132.93% |  |  |  | 
28 | Cc1nc2ccc(Oc3ccccc3)cc2c2c1CCN2CCc1ccccc1 [MMV1634399] | 25.5463% | 44.1623% | 23.583% | 0.85% | 15.15% | 116.13% | 
29 | O=C(Nc1ccccc1C(=O)O)c1cccc(Oc2ccccc2)c1 [MMV1579784] | 0.07516% | 11.2094% | 41.5815% |  |  |  | 
30 | COC(=O)Nc1nc2c(C)cccc2[nH]1 [MMV1782387] | -0.1734% | -20.8652% | 91.1788% |  |  |  | 
31 | OB1OCc2cc(Cl)ccc21 [MMV1634363] | -0.4278% | -12.2339% | 101.699% |  |  |  | 
32 | Clc1ccc(Cn2c(CN3CCCC3)nc3ccccc32)cc1 [MMV002015] | -0.9034% | -18.1648% |  |  |  |  | 85.4319%
33 | COc1ccc(CNC(=O)C2CCN(C(C)c3cccc4ccccc34)CC2)cc1 (stereo not drawn) [MMV1634397] | 1.669% | -0.9153% | 68.3168% |  |  |  | 
34 | COc1cc(Cc2cc(N)nc(N)n2)cc(OC)c1OC [MMV1579846] | 1.265% | 19.1796% | 26.7191% |  |  |  | 
35 | CN(C)CCCOc1ccc(-c2ccc3ncc4c(c3c2)n(C2CCOCC2)c(=O)n4C)cn1 [MMV1580483] | -0.0428% | 2.3899% |  |  |  |  | 49.6824%
36 | Nc1nc(N)c2c(Sc3ccccc3)cccc2n1 [MMV021759] | -5.79% | -12.5973% | 37.4067% |  |  |  | 
37 | Cc1cc(C2CCCCC2)n(O)c(=O)c1 [MMV002731] | -0.5492% | -23.4097% |  |  |  |  | 50.1817%
